This series is described as follows: activity coefficient (dimensionless); of the first substance listed, at infinite dilution; xn = mol fraction of the nth substance listed. To be noted: Liquid, Chromatography, x1 = 0.

“And” between values parts separate entries of the source, which are not always exact repeats. Identical values can stand only once. Numbers after ± are expanded uncertainties.

Regarding `CCCCCCCCCC` [decane] + CCCCCC[n+]1ccn(C)c1.O=S(=O)([N-]S(=O)(=O)C(F)(F)F)C(F)(F)F, the activity coefficient is, setting by setting: (307.05 K) 28.5 ± 1.9; (312.35 K) 27.4 ± 1.9; (322.85 K) 25.6 ± 1.8; (333.35 K) 22.9 ± 1.6.

As to `CC#N` [acetonitrile] + CCCCCC[n+]1ccn(C)c1.O=S(=O)([N-]S(=O)(=O)C(F)(F)F)C(F)(F)F, the activity coefficient (312.25 K) was determined as 0.456 ± 0.036; the activity coefficient (322.85 K) was 0.446 ± 0.036; the activity coefficient (333.35 K) worked out at 0.434 ± 0.035; the activity coefficient (343.85 K) is 0.426 ± 0.035; the activity coefficient (354.25 K) is 0.413 ± 0.034.

For `C=CCCCCC` [1-heptene] + CCCCCC[n+]1ccn(C)c1.O=S(=O)([N-]S(=O)(=O)C(F)(F)F)C(F)(F)F, the activity coefficient reads like this: (301.95 K) 6.36 ± 0.43; (312.45 K) 6.18 ± 0.42; (322.95 K) 5.96 ± 0.41; (333.45 K) 5.69 ± 0.39; (343.95 K) 5.44 ± 0.37; (354.35 K) 5.26 ± 0.36.

In the case of `CCCCCCCCC` [nonane] + CCCCCC[n+]1ccn(C)c1.O=S(=O)([N-]S(=O)(=O)C(F)(F)F)C(F)(F)F, the activity coefficient is, setting by setting: (307.05 K) 21.4 ± 1.5; (312.35 K) 20.5 and 20.3; (322.85 K) 18.9 and 18.6.

`CCCC(=O)OC` [methyl butanoate] + CCCCCC[n+]1ccn(C)c1.O=S(=O)([N-]S(=O)(=O)C(F)(F)F)C(F)(F)F: the activity coefficient stood at 0.868 ± 0.055 (322.75 K), 0.874 ± 0.056 (333.25 K), 0.877 ± 0.056 (343.65 K) and 0.884 ± 0.056 (354.15 K).

Regarding `CCCCCCC` [heptane] + CCCCCC[n+]1ccn(C)c1.O=S(=O)([N-]S(=O)(=O)C(F)(F)F)C(F)(F)F, the activity coefficient is 11.2 ± 0.76 (300.95 K); 10.4 ± 0.71 (312.25 K); 9.69 ± 0.66 (322.85 K); 9.09 ± 0.62 (333.25 K); 8.65 ± 0.59 (343.75 K).

Regarding `CCCO` [propan-1-ol] + CCCCCC[n+]1ccn(C)c1.O=S(=O)([N-]S(=O)(=O)C(F)(F)F)C(F)(F)F, the activity coefficient (312.45 K) came to 2.15 ± 0.15; the activity coefficient (323.05 K) came out at 1.86 ± 0.13; the activity coefficient (333.45 K) was determined as 1.63 ± 0.11; the activity coefficient (343.95 K) came out at 1.43 ± 0.09; the activity coefficient (354.45 K) amounted to 1.27 ± 0.08.

With `C1=CCCC=C1` [1,3-cyclohexadiene] + CCCCCC[n+]1ccn(C)c1.O=S(=O)([N-]S(=O)(=O)C(F)(F)F)C(F)(F)F, the activity coefficient by setting is: (312.05 K) 1.8 ± 0.12; (322.65 K) 1.76 ± 0.12; (333.15 K) 1.72 ± 0.12; (343.65 K) 1.67 ± 0.11; (354.25 K) 1.62 ± 0.11.

Take `C=CCCCCCCCC` [1-decene] + CCCCCC[n+]1ccn(C)c1.O=S(=O)([N-]S(=O)(=O)C(F)(F)F)C(F)(F)F: the activity coefficient by setting is: (312.25 K) 16 ± 1.1; (322.85 K) 15.2 ± 1; (333.15 K) 14.1 ± 0.96; (333.25 K) 14.4 ± 0.98; (343.75 K) 13.5 and 13.3; (354.15 K) 13.1 ± 0.89. Further, the activity coefficient (364.55 K) was found to be 11.9 ± 0.81.

As for `CCCCCC=O` [hexanal] + CCCCCC[n+]1ccn(C)c1.O=S(=O)([N-]S(=O)(=O)C(F)(F)F)C(F)(F)F, the activity coefficient (333.15 K) is 1.2 ± 0.077; the activity coefficient (343.55 K) amounted to 1.21 ± 0.078; the activity coefficient (354.05 K) turned out to be 1.23 ± 0.079; the activity coefficient (364.45 K) was found to be 1.24 ± 0.08; the activity coefficient (374.95 K) was determined as 1.26 ± 0.081.

Regarding `CCCC=O` [butanal] + CCCCCC[n+]1ccn(C)c1.O=S(=O)([N-]S(=O)(=O)C(F)(F)F)C(F)(F)F, the activity coefficient was 0.578 ± 0.041 (301.75 K), 0.576 ± 0.041 (312.25 K), 0.574 ± 0.041 (322.85 K) and 0.572 ± 0.041 (333.35 K).

As to `CCCCCCCCCCCC` [dodecane] + CCCCCC[n+]1ccn(C)c1.O=S(=O)([N-]S(=O)(=O)C(F)(F)F)C(F)(F)F, the activity coefficient turned out to be 39.6 ± 2.7 (333.35 K), 36.4 ± 2.5 (343.75 K), 34.2 ± 2.3 (354.25 K) and 30.3 ± 2.1 (364.75 K).
